Reference: patent publication US11999716B2, “WDR5 inhibitors and modulators” (priority 2018, dated 2024)

Each compound was assayed on MV4:11 human cancer cell lines (assay: Cellular viability / anti-proliferative activity, CellTiter-Glo, 5 day protocol). Details: Homo sapiens, MV4-11, 120 h, MV4:11 cells; 5 day incubation; CellTiter-Glo; mean of minimum two replicates; read-out: GI50 on cellular proliferation of MV4:11 human cancer cell lines.
Type: cell-based
Outline: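 Compounds were tested over 22 two-fold dilutions starting at 30 μM in 0.3% DMSO, with 200 cells per well (7200 cells/mL). Viability was measured by CellTiter-Glo luminescence at day 5.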
In the case of CCc1ccnc(CN2CCc3c(cc(Cn4ccnc4CC)cc3-c3cn(CC)nc3C(F)(F)F)C2=O)c1 [Example 149, 7-((2-Ethyl-1H-imidazol-1-yl)methyl)-5-(1-ethyl-3-(trifluoromethyl)-1H-pyrazol-4-yl)-2-((4-ethylpyridin-2-yl)methyl)-3,4-dihydroisoquinolin-1(2H)-one], the GI50 is reported as under 0.05 µM.
Compound Cc1nccn1Cc1cc2c(c(-c3cn(C)nc3C(F)(F)F)c1)CCN(Cc1cc(Br)ccn1)C2=O [Example 205, 2-((4-Bromopyridin-2-yl)methyl)-7-((2-methyl-1H-imidazol-1-yl)methyl)-5-(1-methyl-3-(trifluoromethyl)-1H-pyrazol-4-yl)-3,4-dihydroisoquinolin-1(2H)-one] has a GI50 of under 0.05 µM.
COc1ccnc([C@H](C)N2CCc3c(cc(Cn4ccnc4C)cc3-c3ccc(F)cc3C)C2=O)c1 [Example 168, (S)-5-(4-Fluoro-2-methylphenyl)-2-(1-(4-methoxypyridin-2-yl)ethyl)-7-((2-methyl-1H-imidazol-1-yl)methyl)-3,4-dihydroisoquinolin-1(2H)-one] gave a GI50 of under 0.05 µM.
Work on Cn1cc(-c2cc(Cn3ccn(C)c3=N)cc3c2CCN(Cc2cc(C4CC4)nn2C)C3=O)c(C(F)(F)F)n1 [Example 147, 2-((3-Cyclopropyl-1-methyl-1H-pyrazol-5-yl)methyl)-7-((2-imino-3-methyl-2,3-dihydro-1H-imidazol-1-yl)methyl)-5-(1-methyl-3-(trifluoromethyl)-1H-pyrazol-4-yl)-3,4-dihydroisoquinolin-1(2H)-one] yielded a GI50 of 0.073 µM.
Work on Cc1nccn1Cc1cc2c(c(-c3cn(C)nc3C(F)(F)F)c1)CCN(Cc1cc(Br)c3ccccc3n1)C2=O [Example 204, 2-((4-Bromoquinolin-2-yl)methyl)-7-((2-methyl-1H-imidazol-1-yl)methyl)-5-(1-methyl-3-(trifluoromethyl)-1H-pyrazol-4-yl)-3,4-dihydroisoquinolin-1(2H)-one] yielded a GI50 of 0.058 µM.
Compound COc1cc(CN2CCc3c(cc(Cn4ncnc4C)cc3-c3ccc(F)cc3C)C2=O)cc(OC)c1 [Example 144, 2-(3,5-Dimethoxybenzyl)-5-(4-fluoro-2-methylphenyl)-7-((5-methyl-1H-1,2,4-triazol-1-yl)methyl)-3,4-dihydroisoquinolin-1(2H)-one] has a GI50 of over 0.938 µM.
COc1ccnc(CN2Cc3c(cc(Cn4ccn(C)c4=N)cc3-c3cccnc3C)C2=O)c1 [Example 139, 6-((2-Imino-3-methyl-2,3-dihydro-1H-imidazol-1-yl)methyl)-2-((4-methoxypyridin-2-yl)methyl)-4-(2-methylpyridin-3-yl)isoindolin-1-one] gave a GI50 of over 0.938 µM.
In the case of Cc1ccnc([C@H](C2CC2)N2CCc3c(cc(Cn4ccnc4C)cc3-c3ccc(F)cc3C)C2=O)c1 [Example 12, (S)-2-(Cyclopropyl(4-methylpyridin-2-yl)methyl)-5-(4-fluoro-2-methylphenyl)-7-((2-methyl-1H-imidazol-1-yl)methyl)-3,4-dihydroisoquinolin-1(2H)-one], the GI50 is reported as 0.069 µM.
Cc1ccnc(CN2CCc3c(cc(Cn4ccn(C)c4=N)cc3-c3cn(C)nc3C(F)(F)F)C2=O)c1 [Example 53, 7-((2-Imino-3-methyl-2,3-dihydro-1H-imidazol-1-yl)methyl)-5-(1-methyl-3-(trifluoromethyl)-1H-pyrazol-4-yl)-2-((4-methylpyridin-2-yl)methyl)-3,4-dihydroisoquinolin-1(2H)-one] gave a GI50 of under 0.05 µM.
With CCc1nccn1Cc1cc2c(c(-c3cn(C)nc3C(F)(F)F)c1)CCN([C@@H](C)c1cc(C)cc(C)n1)C2=O [Example 164, (S)-2-(1-(4,6-Dimethylpyridin-2-yl)ethyl)-7-((2-ethyl-1H-imidazol-1-yl)methyl)-5-(1-methyl-3-(trifluoromethyl)-1H-pyrazol-4-yl)-3,4-dihydroisoquinolin-1(2H)-one] the GI50 was 0.057 µM.
CCn1cc(-c2cc(Cn3ccnc3)cc3c2CCN([C@@H](C)c2cc(OC)ccn2)C3=O)c(C(F)(F)F)n1 [Example 160, (S)-7-((1H-Imidazol-1-yl)methyl)-5-(1-ethyl-3-(trifluoromethyl)-1H-pyrazol-4-yl)-2-(1-(4-methoxypyridin-2-yl)ethyl)-3,4-dihydroisoquinolin-1(2H)-one] gave a GI50 of under 0.05 µM.
With COc1cc(CN2CCc3c(cc(Cn4ccoc4=N)cc3-c3cccnc3C(F)(F)F)C2=O)cc(OC)c1 [Example 80, 2-(3,5-Dimethoxybenzyl)-7-((2-iminooxazol-3(2H)-yl)methyl)-5-(2-(trifluoromethyl)pyridin-3-yl)-3,4-dihydroisoquinolin-1(2H)-one] the GI50 was under 0.05 µM.
COc1ccnc(CN2CCc3c(cc(CN4CCN(C)C4=N)cc3-c3cn(C)nc3C)C2=O)c1 [Example 47, 5-(1,3-Dimethyl-1H-pyrazol-4-yl)-7-((2-imino-3-methylimidazolidin-1-yl)methyl)-2-((4-methoxypyridin-2-yl)methyl)-3,4-dihydroisoquinolin-1(2H)-one] was tested, and the GI50 was 0.165 µM.
Cc1cc2c(c(CN3CCc4c(cc(Cn5ccnc5C)cc4-c4cn(C)nc4C(F)(F)F)C3=O)c1)OCC2 [Example 218, 7-((2-Methyl-1H-imidazol-1-yl)methyl)-2-((5-methyl-2,3-dihydrobenzofuran-7-yl)methyl)-5-(1-methyl-3-(trifluoromethyl)-1H-pyrazol-4-yl)-3,4-dihydroisoquinolin-1(2H)-one] showed a GI50 of under 0.05 µM.
In the case of CCn1cc(CN2CCc3c(cc(Cn4ccnc4C)cc3-c3cn(CC)nc3C(F)(F)F)C2=O)nn1 [Example 15, 2-((1-Ethyl-1H-1,2,3-triazol-4-yl)methyl)-5-(1-ethyl-3-(trifluoromethyl)-1H-pyrazol-4-yl)-7-((2-methyl-1H-imidazol-1-yl)methyl)-3,4-dihydroisoquinolin-1(2H)-one], the GI50 is reported as 0.076 µM.
Compound Cc1nccn1Cc1cc2c(c(-c3cn(C)nc3C(F)(F)F)c1)CCN(c1ccccc1OC(F)(F)F)C2=O [Example 255, 7-((2-Methyl-1H-imidazol-1-yl)methyl)-5-(1-methyl-3-(trifluoromethyl)-1H-pyrazol-4-yl)-2-(2-(trifluoromethoxy)phenyl)-3,4-dihydroisoquinolin-1(2H)-one] has a GI50 of 2.79 µM.
Compound CCn1cc(-c2cc(Cn3ccn(C4CC4)c3=N)cc3c2CCN(Cc2cc(OC)ccn2)C3=O)cn1 [Example 50, 7-((3-Cyclopropyl-2-imino-2,3-dihydro-1H-imidazol-1-yl)methyl)-5-(1-ethyl-1H-pyrazol-4-yl)-2-((4-methoxypyridin-2-yl)methyl)-3,4-dihydroisoquinolin-1(2H)-one] has a GI50 of over 0.938 µM.
Work on COc1cc(CN2CCc3c(cc(Cn4ccn(C5CC5)c4=N)cc3-c3ccc(F)cc3C)C2=O)cc(OC)c1 [Example 38, 7-((3-Cyclopropyl-2-imino-2,3-dihydro-1H-imidazol-1-yl)methyl)-2-(3,5-dimethoxybenzyl)-5-(4-fluoro-2-methylphenyl)-3,4-dihydroisoquinolin-1(2H)-one] yielded a GI50 of 0.095 µM.
With COc1cc(CN2CCc3c(cc(Cn4cnn(C)c4=N)cc3-c3cn(C)nc3C(F)(F)F)C2=O)cc(OC)c1 [Example 122, 2-(3,5-Dimethoxybenzyl)-7-((5-imino-1-methyl-1,5-dihydro-4H-1,2,4-triazol-4-yl)methyl)-5-(1-methyl-3-(trifluoromethyl)-1H-pyrazol-4-yl)-3,4-dihydroisoquinolin-1(2H)-one] the GI50 was under 0.05 µM.
For COc1ccnc([C@H](C)N2CCc3c(cc(Cn4ccnc4C)cc3-c3ccncc3C)C2=O)c1 [Example 224, (S)-2-(1-(4-Methoxypyridin-2-yl)ethyl)-7-((2-methyl-1H-imidazol-1-yl)methyl)-5-(3-methylpyridin-4-yl)-3,4-dihydroisoquinolin-1(2H)-one], the GI50 was 0.072 µM.
Work on COc1ccnc([C@H](C2CC2)N2CCc3c(cc(Cn4ccnc4)cc3-c3cn(C)nc3C(F)(F)F)C2=O)c1 [Example 252, (S)-7-((1H-Imidazol-1-yl)methyl)-2-(cyclopropyl(4-methoxypyridin-2-yl)methyl)-5-(1-methyl-3-(trifluoromethyl)-1H-pyrazol-4-yl)-3,4-dihydroisoquinolin-1(2H)-one] yielded a GI50 of under 0.05 µM.
Compound CCn1cc(-c2cc(CN3CCCC3=N)cc3c2CCN(Cc2cc(OC)ccn2)C3=O)cn1 [Example 111, 5-(1-Ethyl-1H-pyrazol-4-yl)-7-((2-iminopyrrolidin-1-yl)methyl)-2-((4-methoxypyridin-2-yl)methyl)-3,4-dihydroisoquinolin-1(2H)-one] has a GI50 of over 0.938 µM.
In the case of Cc1ccnc([C@H](C2CC2)N2CCc3c(cc(Cn4cnn(C)c4=N)cc3-c3ccc(F)cc3C)C2=O)c1 [Example 126, (S)-2-(Cyclopropyl(4-methylpyridin-2-yl)methyl)-5-(4-fluoro-2-methylphenyl)-7-((5-imino-1-methyl-1,5-dihydro-4H-1,2,4-triazol-4-yl)methyl)-3,4-dihydroisoquinolin-1(2H)-one], the GI50 is reported as under 0.05 µM.
For Cn1ccn(Cc2cc3c(cc2F)CCN(Cc2ccc(Cl)c(Cl)c2)C3=O)c1=N [Example 26, 2-(3,4-Dichlorobenzyl)-6-fluoro-7-((2-imino-3-methyl-2,3-dihydro-1H-imidazol-1-yl)methyl)-3,4-dihydroisoquinolin-1(2H)-one], the GI50 was over 0.938 µM.
Cc1cc(C)nc([C@@H](C)N2CCc3c(cc(Cn4ccnc4C)cc3-c3cn(C)nc3C(F)(F)F)C2=O)c1 [Example 166, (R)-2-(1-(4,6-Dimethylpyridin-2-yl)ethyl)-7-((2-methyl-1H-imidazol-1-yl)methyl)-5-(1-methyl-3-(trifluoromethyl)-1H-pyrazol-4-yl)-3,4-dihydroisoquinolin-1(2H)-one] was tested, and the GI50 was 0.089 µM.
COc1ccnc(CN2CCc3c(cc(Cn4ccn(C(F)F)c4=N)cc3-c3cn(C)nc3C(F)(F)F)C2=O)c1 [Example 61, 7-((3-(Difluoromethyl)-2-imino-2,3-dihydro-1H-imidazol-1-yl)methyl)-2-((4-methoxypyridin-2-yl)methyl)-5-(1-methyl-3-(trifluoromethyl)-1H-pyrazol-4-yl)-3,4-dihydroisoquinolin-1(2H)-one] showed a GI50 of under 0.05 µM.

Same assay, conditions: MV4:11 cells; 5 day incubation; CellTiter-Glo; mean of minimum two replicates; read-out: GI50 on cellular proliferation of MV4:11 human cancer cell lines
In the case of Cn1cc(-c2cc(Cn3ccn(C)c3=N)cc3c2CCN(Cc2cc(C4CC4)nn2C)C3=O)c(C(F)(F)F)n1 [Example 147, 2-((3-Cyclopropyl-1-methyl-1H-pyrazol-5-yl)methyl)-7-((2-imino-3-methyl-2,3-dihydro-1H-imidazol-1-yl)methyl)-5-(1-methyl-3-(trifluoromethyl)-1H-pyrazol-4-yl)-3,4-dihydroisoquinolin-1(2H)-one], the GI50 is reported as 0.081 µM.
